Laboratory results published in patent US6638935B2, “Heteroary1 derivatives and their use as medicaments” (Zentaris AG, priority 2000, dated 2003).

Which melting point does the source give for `COc1cc(OC)cc(N2CCN(C(=O)c3ccncc3)CC2)c1` [Example 13, 1-(3,5-Dimethoxyphenyl)-4-(4-pyridyl-carbonyl)piperazine] here?
The melting point was 94 to 96 °C.
